In PubChem BioAssay (NCI):
Several values for one entry are separate records, joined by “and”; a condition that tells them apart may be missing. Identical values can stand only once.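 Five concentrations, 48 hours, 96-well plates. The concentration for 50% growth inhibition is given as GI50. TGI marks complete inhibition of growth.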 *1 amine or outer side, *2 acyl side, *3 side chain or, on linkers, in order; H or OH if unused. Where a SMILES comes first, the peptide text is derived from it. Bridges are numbered along the chain shown (N, C = ends). [ ]: non-standard residue; d: D form. The star is where a group is joined. X38 = CC[C@H](C)[C@@H](N[*:1])[C@@H](O)CC(=O)[*:2]; NMeY = CN[C@@H](Cc1ccc(O)cc1)C(=O)O; dNMeL = CN[C@H](CC(C)C)C(=O)O; Hiv = CC(C)[C@H](O)C(=O)O; Pyruvoyl = CC(=O)C(=O)*

Assays:
Assay in all cases: NCI-60 cell line screen, 48 h
[1] = system: HOP-92 NSCLC
[2] = system: SN12C renal
[3] = system: SNB-75 CNS
[4] = system: SK-MEL-5 melanoma
[5] = system: HL-60(TB) leukemia
[6] = system: HCC-2998 colon
[7] = system: UACC-257 melanoma
[8] = system: SR leukemia
[9] = system: MDA-MB-435
[10] = system: MDA-N

SMILES: COc1ccc(/C=C(\Cl)c2ccc(OC)c(OC)c2)cc1OC
- TGI [1]: > 100 µM
- TGI [2]: > 100 µM
- TGI [3]: > 100 µM
- TGI [4]: > 100 µM
- TGI [5]: > 100 µM
- TGI [6]: > 100 µM
- TGI [7]: > 100 µM
- TGI [8]: > 100 µM
- TGI [9]: > 100 µM
- TGI [10]: > 100 µM

SMILES: COc1ccc(Br)c2c1CC(C(=O)O)CC2 (stereo unspecified)
- TGI [1]: > 100 µM
- TGI [2]: > 100 µM
- TGI [3]: > 100 µM
- TGI [4]: > 100 µM
- TGI [5]: > 100 µM
- TGI [6]: > 100 µM
- TGI [7]: > 100 µM
- TGI [8]: > 100 µM
- TGI [9]: > 100 µM
- TGI [10]: > 100 µM

SMILES: C/C(=N\N)C(CN(C)C)C(c1ccccc1)c1c(O)c2ccccc2oc1=O (stereo unspecified)
- TGI [1]: > 100 µM
- TGI [2]: > 100 µM
- TGI [3]: > 100 µM
- TGI [4]: > 100 µM
- TGI [5]: > 100 µM
- TGI [6]: > 100 µM
- TGI [7]: > 100 µM
- TGI [8]: > 100 µM
- TGI [9]: > 100 µM
- TGI [10]: > 100 µM

SMILES: Nc1ccn(C2CC(O)C(COP(O)(=S)OC3CC(n4ccc(N)nc4=O)OC3CO)O2)c(=O)n1 (stereo unspecified)
- TGI [1]: > 100 µM
- TGI [2]: > 100 µM
- TGI [3]: > 100 µM
- TGI [4]: > 100 µM
- TGI [5]: > 100 µM
- TGI [6]: > 100 µM
- TGI [7]: > 100 µM
- TGI [8]: > 100 µM
- TGI [9]: > 100 µM
- TGI [10]: > 100 µM

SMILES: O=c1c2cc(S(=O)(=O)Nc3ccccc3Cl)ccc2ncn1NS(=O)(=O)c1ccc(Br)cc1
- TGI [1]: > 37.5 µM
- TGI [2]: > 37.5 µM
- TGI [3]: > 37.5 µM
- TGI [5]: > 37.5 µM
- TGI [6]: > 37.5 µM
- TGI [7]: > 37.5 µM
- TGI [8]: > 37.5 µM
- TGI [9]: > 37.5 µM
- TGI [10]: > 37.5 µM

SMILES: COc1ccccc1C1CC(=O)CC(c2ccccc2OC)C12C(=O)NC(=S)NC2=O (stereo unspecified)
- TGI [1]: > 100 µM
- TGI [2]: > 100 µM
- TGI [3]: > 100 µM
- TGI [4]: > 100 µM
- TGI [5]: 69.5 µM
- TGI [6]: > 100 µM
- TGI [7]: > 100 µM
- TGI [8]: > 100 µM
- TGI [9]: 94.3 µM
- TGI [10]: 52.5 µM

SMILES: COc1cc2cc(C(=O)N3CC(CCl)c4c3cc(NC(=O)C(C)(C)c3ccccc3[N+](=O)[O-])c3ccccc43)[nH]c2c(OC)c1OC (stereo unspecified)
- GI50 [1]: 222 µM
- GI50 [2]: 146 µM
- GI50 [3]: 61.7 µM
- GI50 [4]: 11.3 µM
- TGI [4]: 7.81 µM and 35.1 µM
- GI50 [5]: 37.1 µM
- TGI [6]: 33.2 µM
- GI50 [7]: 18.9 µM
- TGI [7]: 14.1 µM and 75.6 µM
- TGI [8]: > 600 µM
- GI50 [9]: 91.7 µM
- GI50 [10]: 76.7 µM

SMILES: O=S1(=O)c2cnccc2NC(=NCc2cccc3ccccc23)N1c1ccccc1
- TGI [1]: > 100 µM
- TGI [2]: > 100 µM
- TGI [3]: > 100 µM
- TGI [4]: > 100 µM
- TGI [5]: > 53.7 µM
- TGI [6]: > 100 µM
- TGI [7]: > 100 µM
- TGI [8]: > 100 µM
- TGI [9]: > 100 µM
- TGI [10]: 26.9 µM

SMILES: NC(=O)C(Nc1c(Cl)cccc1Cl)c1cc2cc(Br)ccc2nc1Cl (stereo unspecified)
- TGI [1]: > 100 µM
- TGI [2]: > 100 µM
- TGI [3]: > 100 µM
- TGI [4]: > 100 µM
- TGI [5]: > 100 µM
- TGI [6]: > 100 µM
- TGI [7]: > 100 µM
- TGI [8]: 56.5 µM
- TGI [9]: 49.9 µM
- TGI [10]: > 100 µM

SMILES: Clc1cccc(Cl)c1C=NC12CC3CC(CC(C3)C1)C2
- TGI [1]: > 10 µM
- TGI [2]: > 10 µM
- TGI [3]: > 10 µM
- TGI [4]: > 10 µM
- TGI [5]: > 10 µM
- TGI [6]: > 10 µM
- TGI [7]: > 10 µM
- TGI [8]: > 10 µM
- TGI [9]: > 10 µM
- TGI [10]: > 10 µM

SMILES: COC(=O)N1C[C@@]2(C=CC3(CC2)OCCO3)c2ccccc21
- TGI [1]: > 100 µM
- TGI [2]: > 100 µM
- TGI [3]: > 100 µM
- TGI [4]: > 100 µM
- TGI [5]: 58.4 µM
- TGI [6]: > 100 µM
- TGI [7]: > 100 µM
- TGI [8]: > 100 µM
- TGI [9]: 74.5 µM
- TGI [10]: > 100 µM

SMILES: O=C1c2cc3c(cc2CC12Cc1cc4c(cc1C2=O)CCCC4)CCCC3
- TGI [1]: 50.6 µM
- TGI [2]: > 100 µM
- TGI [3]: 53.4 µM
- TGI [4]: > 100 µM
- TGI [5]: > 100 µM
- TGI [6]: > 100 µM
- TGI [7]: 82.1 µM
- TGI [8]: > 100 µM
- TGI [9]: > 100 µM
- TGI [10]: > 100 µM

SMILES: CC1=C(C(=O)Nc2cccc3c2C(=O)NC3=O)CC(C(=O)Nc2cccc3c2C(=O)NC3=O)=C(C)N1
- TGI [1]: > 100 µM
- TGI [2]: > 100 µM
- TGI [3]: > 100 µM
- TGI [4]: > 100 µM
- TGI [5]: > 100 µM
- TGI [6]: > 100 µM
- TGI [7]: > 100 µM
- TGI [8]: > 100 µM
- TGI [9]: > 100 µM
- TGI [10]: > 100 µM

SMILES: CC[C@H](C)[C@H]1NC(=O)[C@@H](NC(=O)[C@@H](CC(C)C)N(C)C(=O)[C@@H]2CCCN2C(=O)C(C)=O)[C@@H](C)OC(=O)[C@H](Cc2ccc(OC)cc2)N(C)C(=O)[C@@H]2CCCN2C(=O)[C@H](CC(C)C)NC(=O)[C@H](C(C)C)OC(=O)C[C@@H]1O (Pyruvoyl-P[dNMeL]T[X38][Hiv]LP[NMeY](Me); ester 3-C)
- TGI [1]: 0.374 µM
- TGI [2]: 0.0476 µM
- TGI [3]: 0.0101 µM
- TGI [4]: 0.0102 µM
- TGI [5]: 0.187 µM
- TGI [6]: 0.00658 µM
- TGI [7]: 0.0655 µM
- TGI [8]: 0.607 µM
- TGI [9]: 0.158 µM
- TGI [10]: 0.14 µM

SMILES: Cc1ccc(NCC2CC/C(=C\c3ccc(Cl)cc3)C2=O)cc1 (stereo unspecified)
- TGI [1]: 30.6 µM
- TGI [2]: 33.3 µM
- TGI [3]: > 100 µM
- TGI [4]: 20.4 µM
- TGI [5]: 13.7 µM
- TGI [6]: > 69.8 µM
- TGI [7]: 39.2 µM
- TGI [8]: > 24 µM
- TGI [9]: 35.9 µM
- TGI [10]: 26.4 µM
